Experimental data reported in ChEMBL document CHEMBL4622980, “Peptide Inhibitors of Bacterial Protein Synthesis with Broad Spectrum and SbmA-Independent Bactericidal Activity against Clinical Pathogens” (J Med Chem, 2020).
The source made the active and inactive calls. The rule behind the calls is not given here.

Columns and labels:
Escherichia coli [1] = assay: Induction of membrane permeabilization in Escherichia coli BW25113 at 1 uM incubated for 30 mins by ONPG/beta-galactosidase assay; type: functional, organism-based
Escherichia coli [2] = assay: Bactericidal activity against Escherichia coli BW25113 assessed as prevention visible bacterial growth incubated for 18 hrs; type: functional; details: BW25113, 18 h
Escherichia coli [3] = assay: Induction of membrane permeabilization in Escherichia coli BW25113 at 1 to 16 uM incubated for 30 mins by propidium iodide uptake based flow cytometry; type: functional, organism-based
Staphylococcus aureus [4] = assay: Bactericidal activity against Staphylococcus aureus ATCC 25923 assessed as prevention visible bacterial growth incubated for 18 hrs; type: functional; details: ATCC 25923, 18 h
Pseudomonas aeruginosa [5] = assay: Antibacterial activity against Pseudomonas aeruginosa ATCC 27853 assessed as prevention visible bacterial growth incubated for 18 hrs; type: functional; details: ATCC 27853, 18 h
Escherichia coli [6] = assay: Antibacterial activity against Escherichia coli BW25113 expressing delta sbmA mutation assessed as prevention visible bacterial growth incubated for 18 hrs; type: functional; details: BW25113, 18 h
Escherichia coli [7] = assay: Antibacterial activity against Escherichia coli clinical isolates assessed as prevention visible bacterial growth incubated for 18 hrs; type: functional
Escherichia coli [8] = assay: Induction of membrane permeabilization in Escherichia coli BW25113 at 1 to 2 uM incubated for 30 mins by ONPG/beta-galactosidase assay; type: functional, organism-based
Escherichia coli [9] = assay: Induction of membrane permeabilization in Escherichia coli BW25113 at 1 to 16 uM incubated for 30 mins by ONPG/beta-galactosidase assay; type: functional, organism-based
Escherichia coli [10] = assay: Bactericidal activity against Escherichia coli BW25113 expressing delta sbmA mutation assessed as prevention visible bacterial growth incubated for 18 hrs; type: functional; details: BW25113, 18 h
Escherichia coli [11] = assay: Antibacterial activity against Escherichia coli ATCC 25922 assessed as prevention visible bacterial growth incubated for 18 hrs in presence of 10% (v/v) human serum in full MH medium; type: functional; details: ATCC 25922, 18 h
Acinetobacter baumannii [12] = assay: Bactericidal activity against Acinetobacter baumannii ATCC 19606 assessed as prevention visible bacterial growth incubated for 18 hrs; type: functional; details: ATCC 19606 = CIP 70.34 = JCM 6841, 18 h
Klebsiella pneumoniae [13] = assay: Antibacterial activity against Klebsiella pneumoniae 700603 assessed as prevention visible bacterial growth incubated for 18 hrs; type: functional; details: Klebsiella pneumoniae, 700603, 18 h
Escherichia coli [14] = assay: Antibacterial activity against Escherichia coli ATCC 25922 assessed as prevention visible bacterial growth incubated for 18 hrs; type: functional; details: ATCC 25922, 18 h
Klebsiella pneumoniae [15] = assay: Bactericidal activity against Klebsiella pneumoniae 700603 assessed as prevention visible bacterial growth incubated for 18 hrs; type: functional; details: Klebsiella pneumoniae, 700603, 18 h
Escherichia coli [16] = assay: Ratio of MIC for antibacterial activity against Escherichia coli BW25113 expressing delta sbmA mutation to MIC for antibacterial activity against wild type Escherichia coli BW25113; type: functional
Escherichia coli [17] = assay: Ratio of MBC for antibacterial activity against Escherichia coli BW25113 expressing delta sbmA mutation to MBC for antibacterial activity against wild type Escherichia coli BW25113; type: functional
Acinetobacter baumannii [18] = assay: Antibacterial activity against Acinetobacter baumannii ATCC 19606 assessed as prevention visible bacterial growth incubated for 18 hrs; type: functional; details: ATCC 19606 = CIP 70.34 = JCM 6841, 18 h
[19] = Cytotoxicity in human MEC1 cells assessed as reduction in cell viability incubated for 20 hrs by MTT assay; type: cell-based
Escherichia coli [20] = assay: Antibacterial activity against Escherichia coli BW25113 assessed as prevention visible bacterial growth incubated for 18 hrs; type: functional; details: BW25113, 18 h
Escherichia coli [21] = assay: Inhibition of in-vitro transcription/translation in Escherichia coli lysates at 1 uM incubated for 1 hr by luciferase reporter gene assay relative to control; type: functional
Escherichia coli [22] = assay: Bactericidal activity against Escherichia coli ATCC 25922 assessed as prevention visible bacterial growth incubated for 18 hrs; type: functional; details: ATCC 25922, 18 h
Staphylococcus aureus [23] = assay: Antibacterial activity against Staphylococcus aureus ATCC 25923 assessed as prevention visible bacterial growth incubated for 18 hrs; type: functional; details: ATCC 25923, 18 h
Pseudomonas aeruginosa [24] = assay: Bactericidal activity against Pseudomonas aeruginosa ATCC 27853 assessed as prevention visible bacterial growth incubated for 18 hrs; type: functional; details: ATCC 27853, 18 h
Escherichia coli [25] = assay: Induction of membrane permeabilization in Escherichia coli BW25113 at 8 to 16 uM incubated for 30 mins by ONPG/beta-galactosidase assay; type: functional, organism-based
Escherichia coli [26] = assay: Induction of membrane permeabilization in Escherichia coli BW25113 at 8 to 16 uM incubated for 30 mins by propidium iodide uptake based flow cytometry; type: functional, organism-based
Escherichia coli [27] = assay: Induction of membrane permeabilization in Escherichia coli BW25113 at 16 uM incubated for 30 mins by ONPG/beta-galactosidase assay relative to 1 uM colistin; type: functional
Escherichia coli [28] = assay: Antibacterial activity against Escherichia coli isolate EURL-VTEC C07 assessed as prevention visible bacterial growth incubated for 18 hrs; type: functional; details: isolate EURL-VTEC C07, 18 h
Escherichia coli [29] = assay: Induction of membrane permeabilization in Escherichia coli BW25113 at 4 uM incubated for 30 mins by ONPG/beta-galactosidase assay; type: functional, organism-based
Escherichia coli [30] = assay: Induction of membrane permeabilization in Escherichia coli BW25113 at 4 uM incubated for 30 mins by propidium iodide uptake based flow cytometry; type: functional, organism-based

Substance	MBC (Escherichia coli [2]) [µM]	MBC (Staphylococcus aureus [4]) [µM]	MIC99 (Pseudomonas aeruginosa [5]) [µM]	MIC99 (Escherichia coli [6]) [µM]	MIC99 (Escherichia coli [7]) [µM]	Activity (Escherichia coli [8])	MBC (Escherichia coli [10]) [µM]	MIC (Escherichia coli [11]) [µM]	MBC (Acinetobacter baumannii [12]) [µM]	MIC99 (Klebsiella pneumoniae [13]) [µM]	MIC99 (Escherichia coli [14]) [µM]	MBC (Klebsiella pneumoniae [15]) [µM]	Ratio (Escherichia coli [16])	MIC99 (Acinetobacter baumannii [18]) [µM]	CC50 at 20 h [19] [µM]	MIC99 (Escherichia coli [20]) [µM]	inhibition (Escherichia coli [21])	MBC (Escherichia coli [22]) [µM]	MIC99 (Staphylococcus aureus [23]) [µM]	MBC (Pseudomonas aeruginosa [24]) [µM]	other results
COLISTIN	–	–	–	–	–	–	–	–	–	–	–	–	–	–	–	–	–	–	–	–	Activity (Escherichia coli [1]): Active
H-RRIRPRPPRLPRPRWR-OH	8	> 64	> 64	4	> 1	inactive	16	1.5	24	2	1	16	2 - 4	12	> 64	1 to 4	Active	2	> 64	32	Activity (Escherichia coli [3]): inactive; Activity (Escherichia coli [9]): inactive; Ratio (Escherichia coli [17]): 2 - 4
H-WRIRPRPPRLPRPRPR-OH	1	> 64	> 64	12	> 1	inactive	32	1	64	16	1	64	–	32	> 64	1 to 2	Active	2	> 64	> 64	Activity (Escherichia coli [3]): inactive; Activity (Escherichia coli [9]): inactive
H-WRIRRRPPRLPRPRWR-OH	8	> 64	64	3	> 1	inactive	4	6	32	4	1	32	2 - 4	32	> 64	1	Active	2	32	64	Activity (Escherichia coli [25]): Active; Ratio (Escherichia coli [17]): 2 - 4; Activity (Escherichia coli [26]): Active; Activity (Escherichia coli [27]): 30%
H-WRIRRRWPRLPRPRWR-OH	4	> 64	32	4	> 1	inactive	4	3	8	2	1	8	2 - 4	4	> 64	2	Active	2	12	> 64	MIC99 (Escherichia coli [28]): 2 µM; Activity (Escherichia coli [29]): Active; Activity (Escherichia coli [30]): Active; Activity (Escherichia coli [25]): Active; Ratio (Escherichia coli [17]): 2 - 4; Activity (Escherichia coli [26]): Active; Activity (Escherichia coli [27]): 30%
